In assay [1] the test system is myocardial ischemia/reperfusion (I/R) injury in C57BL6 mice. As to the kind of experiment: Infarct size after myocardial ischemia/reperfusion in mice (Evans blue/TTC staining). The class given is in vivo. The note with it: for effect on infarct size (in words): administered 5 minutes prior to reperfusion, versus saline/PBS. Here is the method: Male C57BL6 mice (8-12 weeks old, 25-30 grams of weight) underwent 30 minutes of ischemia followed by 24 hours of reperfusion.
Experimental compounds were administered 5 minutes prior to reperfusion via the tail vein. […] OPN-301 (OPN301) is a murine IgG1 anti-TLR2 antibody (mouse Toll-like Receptor 2 (TLR2) antibody, clone T2.5, HyCult Biotechnology b.v., Cell Sciences, Canton, USA: catalogue number 1054).
Mice were anesthetized with a mixture of […]™ (N-(1-phenethyl-4-piperidyl)-N-phenyl-propanamide) 0.05 mg/kg, DORMICUM™ (Midazolum, 8-chloro-6-(2-fluorophenyl)-1-methyl-4H-imidazo[1,5-a][1,4]benzodiazepine) 5 mg/kg and DOMITOR™ (medetomidine hydrochlorine) 0.5 mg/kg (intraperitoneal injection). Atropine ((8-methyl-8-azabicyclo[3.2.1]oct-3-yl) 3-hydroxy-2-phenylpropanoate) 0.05 mg/kg was subcutaneously administered before coronary ligation. Core body temperature was maintained between 36° C. and 37.5° C. during surgery by continuous monitoring with a rectal thermometer and automatic heating blanket. Mice were […] and ventilated (Harvard Apparatus Inc.) with 100% oxygen. The left anterior descending (LAD) coronary artery was ligated using an 8-0 vicryl suture with a section of polyethylene-10 tubing placed over the LAD.
Ischemia was confirmed by bleaching of the myocardium. Reperfusion was initiated by releasing the ligature and removing the polyethylene-10 tubing. Reperfusion of the endangered myocardium is characterized by typical hyperaemia in the first few minutes. A piece of the loosened suture was left in place in order to determine ischemic area. The chest wall was closed and the animals received subcutaneously […]™ (atipamezole hydrochloride, a sedation reversal agent for DOMITOR™ (medetomidine hydrochlorine)) 2.5 mg/kg, ANEXATE™ (Flumazenil (also known as flumazepil)) 0.5 mg/kg and […]™ (buprenorphine) 0.1 mg/kg.
Infarct Size (IS) is expressed as a percentage of the Area-At-Risk (AAR) and total Left Ventricle (LV). The ratio of AAR/LV is a measure for the extent of myocardial tissue that underwent ischemia and reperfusion (i.e. endangered area). The ratio IS/AAR is an accurate measurement to determine infarct size within endangered myocardium and is the primary endpoint from which the efficacy of treatment is addressed. The secondary endpoint IS/LV ratio is the percentage infarcted area within the total left ventricular wall.
To determine the AAR, the LAD was ligated once again (at the level marked by the suture left in place) and 4% Evans blue dye was injected via the thoracic aorta in a retrograde fashion. Hearts were rapidly explanted, rinsed in 0.9% saline and wrapped in a clear food wrap and frozen at −20° C. for 1 hour. Hearts were then mechanically sliced into five 1 mm cross sections. Heart sections were incubated in 1% triphenyltetrazolium chloride (Sigma-Aldrich) at 37° C. for 15 minutes before placing them in formaldehyde for another 15 minutes. Viable tissue stained red and infarcted tissue appeared white. Heart sections were digitally photographed (CANON EOS 400D) under a microscope (CARL ZEISS™). IS, MR and total LV area were measured using ImageJ software (version 1.34).
All data are expressed as Mean±SD. After skewness±SD and kurtosis±SD confirmed normality, a one-way ANOVA with Bonferroni adjustment (Table 2) and a Dunnett's T test (2 sided) (Table 4). was used to test differences between groups. Kolmogorov-Smirnov test performed if abnormal distribution was suspected (i.e. when kurtosis and skewness values are twice their standard deviations). All statistical analyses were performed using SPSS version 13.0 for Windows (SPSS, Chicago, USA) and p<0.05 was considered significant.

For assay [2], the system named is IL-1 production in LPS-stimulated human peripheral blood monocytes. To be noted: cited from earlier work.
Where [3] appears, read: Table 1, 30 min ischemia/24 h reperfusion, i.v. 5 min prior to reperfusion, mAb and IgG 10 mg/kg, SB239063 0.5 mg/kg, n=10.
The mark [4] stands for this setting: Table 2, Bonferroni, (J) group IgG isotype.
The mark [5] stands for this setting: Table 2, Bonferroni, (J) group PBS.
The mark [6] stands for this setting: Table 2, Bonferroni, (J) group exp. mAB.
The mark [7] stands for this setting: Table 3 (amended, saline control set), 30 min ischemia/24 h reperfusion, n=10.
The mark [8] stands for this setting: Table 5, Dunnett, (J) group Saline.

pIC50: −log10 of the molar value. Entries after “also recorded” stand apart in the source; their conditions may differ.

Take “trans-1-(4-Hydroxycyclohexyl)-4-(fluorophenyl)-5-(2-methoxypyrimidin-4-yl) imidazole [SB239063]”: in assay [1] (setting [3]), the “IS_AAR (infarct size as percentage of Area At Risk), Mean” value is 31.4000%. Besides, in assay [1] (setting [3]), the “IS_LV (infarct size as percentage of total Left Ventricle), Mean” value came out at 12.0100%. In addition, the “IS_AAR Mean Difference (I-J)” value is “.25400” in assay [1] (setting [4]); −4.185 in assay [1] (setting [5]); 13.51(*) in assay [1] (setting [6]); −2.776 in assay [1] (Table 4, Dunnett, (J) group Saline, n=10 groups); −2.776 in assay [1] (setting [8]). For the same substance, the “IS_LV Mean Difference (I-J)” value in assay [1] (setting [4]) is on record as “−.85200”; in assay [1] (setting [5]), −5.3; in assay [1] (setting [6]), 5.908(*); in assay [1] (setting [8]), −1.74. Besides, the “IS/AAR Mean” value in assay [1] (setting [7]) is 31.7250%. The “IS/LV Mean” value in assay [1] (setting [7]) is on record as 12.3220%. Further, the “effect on infarct size (in words)” value in assay [1] is reported as “did not reduce infarct size”; in assay [1] (listed as p38 inhibitor), “no reduction of infarct size; also recorded: no difference in infarct size”. In assay [1] (versus PBS treated mice, not statistically significant (FIG. 7)), the “difference in mean IS/LV” value was −26%. Further, the pIC50 in assay [2] is 6.92.

The values are drawn from US8734788B2, “Composition and method for treatment of reperfusion injury and tissue damage” (OPSONA Therapeutics Ltd, priority 2007, dated 2014).
